Measurements published in PubChem BioAssay (NCI).
“And” between values parts separate entries of the source, which are not always exact repeats. Identical values can stand only once.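 Grown in 96-well plates, cells were treated for 48 hours with each compound at five concentrations. Insufficient inhibition: endpoint recorded as highest concentration tested. Here, GI50 denotes the concentration required for 50% inhibition of growth. TGI is the concentration that stops growth completely.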

What follows are compounds tested on M14 melanoma (assay: NCI tumour cell line growth inhibition, 48 h).

Row | SMILES | TGI [µM] | GI50 [µM]
1 | O=C(/C=C/c1ccc([N+](=O)[O-])cc1)c1ccc(NCc2nc3ccccc3[nH]2)cc1 | 24 | –
2 | Cc1cccc(C)c1NC(=O)CCCC(=O)C1/C(=N/NC(=O)CC#N)CCC/C1=N\NC(=O)CC#N (stereo not drawn) | > 100 | –
3 | CN(C)CC1CC/C(=C\c2ccc(O)cc2)C1=O (stereo not drawn) | 4.95 | –
4 | O=c1ccc2ccccc2cc1[O-].O=c1ccc2ccccc2cc1[O-].[O]=[U+2]=[O] | 54.5 | 16.9
5 | Cc1ccc(-n2c3nc(=O)[nH]c(=O)c-3cc3cc([N+](=O)[O-])ccc32)cc1 | 36.6 | 17.3
6 | COC(=O)C(CCCN1C(=O)c2ccccc2C1=O)C(=O)OC | > 100 | –
7 | COc1nc(NC2OC(COC(C)=O)C(OC(C)=O)C(OC(C)=O)C2OC(C)=O)c2c(OC(C)=O)cc(=O)oc2n1 (stereo not drawn) | > 100 | –
8 | CC(C)(C)c1cc2c(O)c3cccc4c(=O)c5cccc6c5-c(c34)c2c(c1)c6=O | > 100 | –
9 | CC1=C2C(=C[C@@](C)(CO)[C@@H]2O)C(=O)[C@](C)(O)C12CC2 | 0.0228 | –
10 | O=C1C=CC(=O)c2nc3c(cc21)CCC3 | 31 | –
11 | O=S(=O)(N/N=C/c1cccc(/C=N/NS(=O)(=O)c2ccccc2)c1)c1ccccc1 | > 100 | –
12 | CCCCN(CCCC)C(=O)C(=O)C(C(=O)c1ccc(OC)cc1)c1ccc(OC)cc1 (stereo not drawn) | > 100 | –
13 | C=C(C)CCOC(c1ccccc1)(c1ccccc1)c1ccccc1 | > 100 | –
14 | COc1ccc(C)cc1-c1cc(Sc2ccccc2)c(-c2cc(C)ccc2OC)o1 | > 31.6 | –
15 | CC(=O)O/N=C(/C)c1ccccc1O | > 100 | –
16 | CCCOc1cc2ccccc2cc1C(=O)Nc1nc(N)c2c(ccc3nccc32)[nH]1 | 1.08 | 0.0405
17 | CC1(C)OC1COc1c2occc2cc2ccc(=O)oc12 (stereo not drawn) | > 100 | –
18 | CC(=O)OCCOCNC(=S)N/N=C(\C)c1cnccn1 | 54.7 | –
19 | CCCCCCCCCCCCC(O)c1ccc(C#CCCCCCCCCCO)o1 (stereo not drawn) | 31.9 | 17.4
20 | O=C(Nc1ccccc1-c1nn(C(=S)Nc2ccccc2)c(=S)n(C(=S)Nc2ccccc2)c1=O)C(F)(F)F | 53.3 | –
21 | O=c1c(-c2ccccc2)c2oc(c1-c1ccccc1)CSCc1cccc(c1)CSC2 | > 100 | –
22 | CN(C)CCn1c2c3ccccc3ccc2c2oc(=O)c3ccccc3c21 | 19.1 | –

These compounds were tested on HS 578T breast (assay: NCI tumour cell line growth inhibition, 48 h).

Row | SMILES | GI50 [µM] | TGI [µM]
23 | CCCCCCCCCCCCCCCC[N+](C)(C)Cc1ccccc1 | 1.82 | 4.89
24 | O=C1CCCCN1c1ccccc1C#C/C=C\C#Cc1ccccc1C(F)(F)F | 3.75 | > 50
25 | CN(C)CC1CC/C(=C\c2ccc(O)cc2)C1=O (stereo not drawn) | – | 40.9
26 | CC1=C2C(=C[C@@](C)(CO)[C@@H]2O)C(=O)[C@](C)(O)C12CC2 | – | 0.0428
27 | CC1(C)OC1COc1c2occc2cc2ccc(=O)oc12 (stereo not drawn) | – | > 100
28 | CCCCCCCCCCCCC(O)c1ccc(C#CCCCCCCCCCO)o1 (stereo not drawn) | 23.8 | 47.3

These compounds were tested on HCT-116 colon (assay: NCI tumour cell line growth inhibition, 48 h).

Row | SMILES | TGI | GI50 [µM]
29 | COC(=O)CC(c1ccccc1)C1(c2ccccc2)SCCS1 (stereo not drawn) | > 290 µM | –
30 | CCOC(=O)C1=C(C(=O)OCC)C2c3ccccc3C=CN2C(C(=O)OCC)=C(SC)S1 (stereo not drawn) | > 100 µM | –
31 | CCCCCC[C@@H]1CCC2C(CO)[C@@H](O)CC[C@@H]2C1 (stereo partly drawn) | 32.1 µM | –
32 | NC(=O)c1ccccc1NC(=O)C(=O)C(C(=O)c1ccc(Cl)c(Cl)c1)C1OC(=O)c2ccccc21 (stereo not drawn) | 39 µM | –
33 | S=c1sc2c(n1-c1ccccc1)NC=NC2S (stereo not drawn) | > 100 µM | –
34 | Cc1ccc(/C=C/C(=O)CCN(C)C)cc1 | 33.1 µM | –
35 | Cc1ccc(Oc2ccc(C)cc2N)cc1 | > 100 µM | –
36 | c1ccc(NCn2cnc3ccccc32)cc1 | > 100 µM | –
37 | Cc1cc2c(C)[nH]nc2c(C(=O)O)c1C | > 100 µM | –
38 | N#C/C(=C\c1cccc(Cl)c1Cl)c1ccccc1 | > 67.5 µM | –
39 | C/C(=N/Nc1ccc([N+](=O)[O-])cc1[N+](=O)[O-])C(CC(C(=O)NCc1ccccc1)/C(C)=N\Nc1ccc([N+](=O)[O-])cc1[N+](=O)[O-])C(=O)NCc1ccccc1 (stereo not drawn) | 16.4 µM | –
40 | N[C@@H]1CCCC[C@@H]1N.O=P([O-])([O-])CN(CCN(CP(=O)([O-])[O-])CP(=O)([O-])[O-])CP(=O)([O-])[O-].[Pt+2] | > 25 µM | > 25
41 | COc1ccc(OC)c(N2CC(N)C2=O)c1 (stereo not drawn) | > 100 µM | –
42 | O=C1CCCCN1c1ccccc1C#C/C=C\C#Cc1ccccc1C(F)(F)F | 2.59 µM | 1.01
43 | Cc1cccc(C)c1NC(=O)CCCC(=O)C1/C(=N/NC(=O)CC#N)CCC/C1=N\NC(=O)CC#N (stereo not drawn) | > 100 µM | –
44 | CN(C)CC1CC/C(=C\c2ccc(O)cc2)C1=O (stereo not drawn) | 4.09 µM | –
45 | Cc1ccc(-n2c3nc(=O)[nH]c(=O)c-3cc3cc([N+](=O)[O-])ccc32)cc1 | 21 µM | 5.26
46 | COC(=O)C(CCCN1C(=O)c2ccccc2C1=O)C(=O)OC | > 100 µM | –
47 | COc1nc(NC2OC(COC(C)=O)C(OC(C)=O)C(OC(C)=O)C2OC(C)=O)c2c(OC(C)=O)cc(=O)oc2n1 (stereo not drawn) | > 100 µM | –
48 | CC(C)(C)c1cc2c(O)c3cccc4c(=O)c5cccc6c5-c(c34)c2c(c1)c6=O | > 100 µM | –
49 | CC1=C2C(=C[C@@](C)(CO)[C@@H]2O)C(=O)[C@](C)(O)C12CC2 | 0.104 µM and 0.135 µM | –
50 | O=C1C=CC(=O)c2nc3c(cc21)CCC3 | 28.8 µM | –
51 | O=S(=O)(N/N=C/c1cccc(/C=N/NS(=O)(=O)c2ccccc2)c1)c1ccccc1 | > 100 µM | –
52 | CCCCN(CCCC)C(=O)C(=O)C(C(=O)c1ccc(OC)cc1)c1ccc(OC)cc1 (stereo not drawn) | > 100 µM | –
53 | C=C(C)CCOC(c1ccccc1)(c1ccccc1)c1ccccc1 | 76.6 µM | –
54 | COc1ccc(C)cc1-c1cc(Sc2ccccc2)c(-c2cc(C)ccc2OC)o1 | > 31.6 µM | –
55 | CC(=O)O/N=C(/C)c1ccccc1O | > 100 µM | –
56 | CCCOc1cc2ccccc2cc1C(=O)Nc1nc(N)c2c(ccc3nccc32)[nH]1 | 1.22 µM | 0.0461
57 | CC1(C)OC1COc1c2occc2cc2ccc(=O)oc12 (stereo not drawn) | > 100 µM | –
